{"source": "patent US8367835B2", "about": "“Cyclic amine-1-carboxylic acid ester derivative and pharmaceutical composition containing the same” (Dainippon Sumitomo Pharma Co., Ltd., priority 2008, dated 2013)", "data": [{"biological_target": "T1, TRPV1 (Rattus norvegicus, UniProt O35433)", "T1 construct": "using cultured rat dorsal root ganglion cells which express TRPV1 abundantly; endogenous in cells; host or cells: primary culture of dorsal root ganglion cells from 7 day old Wistar rat", "T1 sequence (O35433 whole entry)": "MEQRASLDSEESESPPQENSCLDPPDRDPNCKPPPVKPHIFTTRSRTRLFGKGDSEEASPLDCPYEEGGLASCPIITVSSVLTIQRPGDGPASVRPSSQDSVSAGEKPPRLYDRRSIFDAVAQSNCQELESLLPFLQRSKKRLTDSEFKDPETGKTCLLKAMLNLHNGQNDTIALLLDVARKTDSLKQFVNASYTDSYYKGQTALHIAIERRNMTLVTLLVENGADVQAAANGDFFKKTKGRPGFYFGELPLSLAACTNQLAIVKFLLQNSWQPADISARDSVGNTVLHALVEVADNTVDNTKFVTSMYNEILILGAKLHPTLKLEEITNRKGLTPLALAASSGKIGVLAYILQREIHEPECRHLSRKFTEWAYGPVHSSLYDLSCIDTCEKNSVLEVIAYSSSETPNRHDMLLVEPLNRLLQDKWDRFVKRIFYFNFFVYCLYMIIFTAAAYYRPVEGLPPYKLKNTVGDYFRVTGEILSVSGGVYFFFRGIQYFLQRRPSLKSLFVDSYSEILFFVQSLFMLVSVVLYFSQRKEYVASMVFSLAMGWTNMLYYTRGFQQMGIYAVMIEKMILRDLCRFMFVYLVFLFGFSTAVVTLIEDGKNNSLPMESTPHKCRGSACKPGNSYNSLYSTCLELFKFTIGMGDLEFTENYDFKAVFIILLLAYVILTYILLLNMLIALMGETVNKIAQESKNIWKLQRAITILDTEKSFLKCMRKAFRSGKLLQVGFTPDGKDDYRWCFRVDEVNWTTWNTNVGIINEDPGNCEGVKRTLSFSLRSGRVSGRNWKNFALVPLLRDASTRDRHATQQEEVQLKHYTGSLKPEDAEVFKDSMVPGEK", "assay": "TRPV1 agonist activity by intracellular calcium level (FLIPR method)", "assay_type": "cell-based", "details": "1 μM; rat dorsal root ganglion primary culture cells; read-out: Value (%) when fluorescence intensity for capsaicin (1 μM) is 100%", "description": "(§1) The test is to measure the elevation of intracellular calcium level as the indicator of TRPV1 agonist activity of a test compound using cultured rat dorsal root ganglion cells which express TRPV1 abundantly, and carried out in accordance with the method of Jerman et al. (Jerman, J. C. et al., Comparison of effects of anandamide at recombinant and endogenous rat vanilloid receptors. Br J Anaesth, 2002. 89(6): p. 882-7). More specifically, the dorsal root ganglion was removed from a 7 day old Wistar rat, and the cells were isolated by collagenase-trypsin treatment. Subsequently, the primary cells was cultured in a CO2 incubator controlled at 5% CO2 and 37° C. for 2 days. The culture medium used was Neurobasal™ medium supplemented with L-glutamine, nerve growth factor, N-2-Supplement, Penicillin-Streptomycin, 5-Fluoro-2′-deoxyuridine (culture day 1 only) were added to.\n(§2) FLIPR^TETRA system (Molecular Devices Corp.) was used to measure the intracellular calcium concentration. As an indicator of TRPV1 agonistic activity, the fluorescence intensity elevation was monitored when a test compound is applied to the rat dorsal root ganglion primary culture cells loaded with a calcium-sensitive fluorescent reagent.", "units": {"Emax at 1 µM": "%"}, "values": [{"compound": "CC[C@H]1CCCC[C@H]1OC(=O)N1CCC(C(=O)NCc2ccc(O)c(OC)c2)CC1", "note": "(relative stereo) [Example 13, cis-2-ethylcyclohexyl 4-(4-hydroxy-3-methoxybenzylcarbamoyl)-piperidine-1-carboxylate]", "Emax at 1 µM": 81}, {"compound": "COc1cc(CNC(=O)C2CCN(C(=O)O[C@H]3CC[C@@H](C)CC3)CC2)ccc1O", "note": "[Example 3]", "Emax at 1 µM": 80}, {"compound": "COc1cc(CNC(=O)C2CCN(C(=O)O[C@H]3CC[C@H](C)CC3)CC2)ccc1O", "note": "[Example 4]", "Emax at 1 µM": 80}, {"compound": "COc1cc(CNC(=O)C2CCN(C(=O)O[C@H]3CC[C@@H](C(C)(C)C)CC3)CC2)ccc1O", "note": "[Example 5]", "Emax at 1 µM": 84}, {"compound": "COc1cc(CNC(=O)C2CCN(C(=O)O[C@H]3CC[C@H](C(C)(C)C)CC3)CC2)ccc1O", "note": "[Example 6]", "Emax at 1 µM": 80}, {"compound": "CCC1(CC)CCC(OC(=O)N2CCC(C(=O)NCc3ccc(O)c(OC)c3)CC2)CC1", "note": "[Example 7]", "Emax at 1 µM": 90}, {"compound": "COc1cc(CNC(=O)C2CCN(C(=O)O[C@@H]3CCC[C@H](C)C3)CC2)ccc1O", "note": "[Example 9]", "Emax at 1 µM": 83}, {"compound": "COc1cc(CNC(=O)C2CCN(C(=O)O[C@H]3CCC[C@H](C)C3)CC2)ccc1O", "note": "[Example 10]", "Emax at 1 µM": 92}, {"compound": "COc1cc(CNC(=O)C2CCN(C(=O)O[C@@H]3C[C@H](C)C[C@H](C)C3)CC2)ccc1O", "note": "[Example 12]", "Emax at 1 µM": 92}, {"compound": "CC[C@H]1CC[C@@H](OC(=O)N2CC(C(=O)NCc3ccc(O)c(OC)c3)C2)CC1", "note": "[Example 15]", "Emax at 1 µM": 83}, {"compound": "COc1cc(CNC(=O)C2CN(C(=O)O[C@H]3CCC[C@H](C)C3)C2)ccc1O", "note": "[Example 18]", "Emax at 1 µM": 86}, {"compound": "COc1cc(CNC(=O)C2CN(C(=O)OC3CC(C)(C)CC(C)(C)C3)C2)ccc1O", "note": "[Example 19]", "Emax at 1 µM": 84}, {"compound": "COc1cc(CNC(=O)C2CN(C(=O)O[C@@H]3C[C@H](C)CC[C@H]3C(C)C)C2)ccc1O", "note": "[Example 20]", "Emax at 1 µM": 73}, {"compound": "COc1cc(CNC(=O)C2CN(C(=O)O[C@H]3C[C@H](C)CC[C@H]3C(C)C)C2)ccc1O", "note": "[Example 21]", "Emax at 1 µM": 85}, {"compound": "CCCC[C@H]1CC[C@@H](OC(=O)N2CC(C(=O)NCc3ccc(O)c(OC)c3)C2)CC1", "note": "[Example 22]", "Emax at 1 µM": 80}, {"compound": "CCCC[C@H]1CC[C@H](OC(=O)N2CC(C(=O)NCc3ccc(O)c(OC)c3)C2)CC1", "note": "[Example 23]", "Emax at 1 µM": 77}, {"compound": "COc1cc(CNC(=O)C2CN(C(=O)O[C@H]3CC[C@@H](C(C)C)CC3)C2)ccc1O", "note": "[Example 24]", "Emax at 1 µM": 84}, {"compound": "COc1cc(CNC(=O)C2CN(C(=O)O[C@H]3CC[C@H](C(C)C)CC3)C2)ccc1O", "note": "[Example 25]", "Emax at 1 µM": 71}, {"compound": "C=C(C)[C@@H]1CC[C@@H](C)C[C@H]1OC(=O)N1CC(C(=O)NCc2ccc(O)c(OC)c2)C1", "note": "[Example 26, (1R,2S,5R)-2-isopropenyl-5-methylcyclohexyl 3-(4-hydroxy-3-methoxybenzylcarbamoyl)-azetidine-1-carboxylate]", "Emax at 1 µM": 82}, {"compound": "COc1cc(CNC(=O)[C@H]2CCN(C(=O)OC3CCC(C)(C)CC3)C2)ccc1O", "note": "[Example 27, 4,4-dimethylcyclohexyl (S)-3-(4-hydroxy-3-methoxybenzylcarbamoyl)-pyrrolidine-1-carboxylate]", "Emax at 1 µM": 86}, {"compound": "CC[C@H]1CC[C@@H](OC(=O)N2CC[C@H](C(=O)NCc3ccc(O)c(OC)c3)C2)CC1", "note": "[Example 28]", "Emax at 1 µM": 81}, {"compound": "CCC1(CC)CCC(OC(=O)N2CC[C@H](C(=O)NCc3ccc(O)c(OC)c3)C2)CC1", "note": "[Example 29]", "Emax at 1 µM": 83}]}, {"biological_target": "T1, TRPV1", "assay": "TRPV1 agonist activity by intracellular calcium level (FLIPR method)", "assay_type": "cell-based", "details": "read-out: Value (%) when fluorescence intensity for capsaicin (1 μM) is 100%, 1 μM; rat dorsal root ganglion primary culture cells", "description": "as §1, §2", "units": {"Emax at 1 µM": "%"}, "values": [{"compound": "COc1cc(CNC(=O)C2CCN(C(=O)O[C@H]3CCCC[C@@H]3C)CC2)ccc1O", "note": "(relative stereo) [Example 47, (1S*,2S*)-2-methylcyclohexyl 4-(4-hydroxy-3-methoxybenzylcarbamoyl)-piperidine-1-carboxylate]", "Emax at 1 µM": 85}, {"compound": "COc1cc(CNC(=O)C2CCN(C(=O)O[C@@H]3CCCC[C@@H]3C)CC2)ccc1O", "note": "[Example 11]", "Emax at 1 µM": 94}, {"compound": "COc1cc(CNC(=O)C2CN(C(=O)O[C@H]3CC[C@H](C(C)(C)C)CC3)C2)ccc1O", "note": "[Example 17]", "Emax at 1 µM": 82}]}]}
